Test results taken from US20240116923A1, “USE OF INDOLE, 6- AND 7-AZAINDOLE DERIVATIVES AS INHIBITORS OF FERROPTOSIS REGULATED CELL DEATH” (Seabelife, priority 2021, published 2024).
Read-outs that look alike come from different tables or passages of the source.

What was measured:
Type in all cases: cell-based
[1] = test system: human neuroblastoma cell line SH-SY5Y; assay: Neurotoxicity assay, SH-SY5Y cells + erastin or RSL3, MTS cell viability; conditions: Homo sapiens
Procedure: The excitotoxicity model used was the mouse hippocampal neuronal HT22 cells treated with glutamate [Dixon et al., Cell, 2012, 149(5), 1060-1072]. Ferroptosis and oxidative stress are both associated in this glutamate-induced cell death [Chu et al., Neural Regen. Res., 2020, 15(3), 528-536]. Phenotypic screening was also carried out with additional cell death inducers, erastin and RSL3 ((1S,3R)-Ras-selective lethal), in HT22 and SH-SY5Y (human neuroblastoma cells). Erastin and RSL3 are well described molecules, used as chemical tools for the study of ferroptosis regulation and neuronal pathologies [Lewerenz et al., Front. Neurosci., 2018, 12: 214; Reichert et al., Int. J. Mol. Sci., 2020, 21, 8765].
Mouse hippocampal neuronal cell line (HT22, ATCC) and human neuroblastoma cell line (SH-SY5Y, ATCC) were grown in Dulbecco's Modified Eagle Medium (DMEM, Gibco) supplemented with 10% fetal bovine serum (FBS, Gibco) at 37° C. under 5% CO2 atmosphere. Neurotoxicity was induced by erastin or RSL3 and excitotoxicity was induced by glutamate. Cells were seeded in 96-well plates at 5,000 and 10,000 cells/well for HT22 and SH-SY5Y cell lines, respectively. Cells were treated with 0.5-1 μM Erastin (HT22 cells) or 10 μM Erastin (SH-SY5Y cells) or 5-10 mM glutamate (HT22 cells) or 0.5 μM RSL3 (HT22 cells) or 5 μM RSL3 (SH-SY5Y cells) for 24 h in presence of increasing concentrations of inhibitors. Cells treated with DMSO only were used as controls. Cell viability was assessed by MTS assay (CellTiter 96 AQueous One Solution Cell Proliferation assay, Promega).
In FIGS. 1, 2A and 2B, an inhibitor was added to HT22 (FIG. 1: compound 6) or SH-SY5Y (FIG. 2A: compound 6; FIG. 2B: compound 25) cells in the presence or not of cell death inducers (erastin, glutamate or RSL3). […] EC50 values for compounds 1-28 were calculated from dose-response curves using Graphpad Prism software.

[2] = test system: Rat dopaminergic neurons; assay: Protective effect after 6-OHDA injury on rat primary dopaminergic neurons survival (TH staining); conditions: for cellular death of dopaminergic neurons after 6-OHDA injury: 1 h before and during 2 days of 6-OHDA 20 μM (alone 48%), p<0.001; for rescue of dopaminergic neurons from cell death after 6-OHDA injury: at every concentration tested of 10 μM, 1 μM and 0.1 μM
Procedure: As explained in Ding et al., J Neurochem., 2004, (89), administration of 6-Hydroxydopamine (6-OHDA), a neurotoxin, has been widely used to cause the selective degeneration of dopamine (DA) neurons in in vitro and in vivo models. These models are used as Parkinson's disease models, which is characterized by the progressive loss of DA neurons of the substantia nigra.
Rat dopaminergic neurons were cultured as described by Schinelli et al., J Neurochem., 1988, 50(6). The cells were seeded at a density of 40 000 cells/well in 96 well-plates (precoated with poly-D-lysine; Greiner, Ref: 655940, Batch: E20093UL) and were cultured at 37° C. in a humidified air (95%)/CO2 (5%) atmosphere. Half of the medium was changed every 2 days with fresh medium. In these conditions, after 5 days of culture, astrocytes are present in the culture and release growth factor allowing neurons differentiation. In this condition, 2 to 5% of neurons are dopaminergic neurons.
6-OHDA (Sigma, Ref: 162957, Batch MKCK5243) was reconstituted in define culture medium at 40 μM (stock solution). The control medium was prepared in the same conditions. After 7 days of culture, primary mesencephalic neurons were pre-treated for 1 hour with test compounds or reference compound (BDNF, 50 ng/mL) and then intoxicated with 6-OHDA at a final concentration of 20 μM for 2 days incubation in order to induce a neuronal cell death of about 50%+/−5%.
After 2 days of intoxication in presence or absence of test compounds, cells were fixed by a solution of 4% paraformaldehyde (Sigma, ref 6148, Batch: SZBE2390V) for 20 min at room temperature, the control conditions were fixed as well following the same procedure. The cells were then permeabilized and nonspecific sites were blocked with a solution of phosphate buffered saline (PBS; PanBiotech; ref: P04-36500, Batch: 7701020) containing 0.1% of saponin (Sigma; ref: S7900, Batch: BCBL8667V) and 1% FCS for 15 min at room temperature. Cells were incubated with a mouse monoclonal anti-Tyrosine Hydroxylase (TH, 1/10 000, Sigma; ref: T1299, Batch: 014M4835) antibody in a solution of PBS overnight at 4° C. Antibody against TH stained dopaminergic neurons. […] Nuclei of cells were labelled by a fluorescent marker (Hoechst, Sigma; ref: B1155, Batch: 046M4048V) in the same solution. For each condition, 20 pictures per well were taken using InCell Analyzer™ 2200 (GE Healthcare) with 20× magnification. Images of each culture well were taken in same condition. Analysis of cell bodies of TH positive neurons was performed using Developer software (GE healthcare). A total of 6 data per experimental condition were provided.

[3] = test system: Primary cultures of porcine RPE; assay: Cellular model of retinal pigment epithelium (RPE) phototoxicity (A2E + blue light); conditions: 10 and 30 μM, A2E 30 μM + blue light, 24 h after induction; FIG. 29
Procedure: Primary cultures of porcine RPE are prepared weekly and run on 96-well culture plates after one week in vitro. The cells are incubated with the molecule 10 minutes before induction of phototoxicity. A2E (30 μM) is added to the culture medium 19 hours before cell illumination by a device equipped with blue light emitting leds (λ=[…]). Cell survival and death are detected 24 hours after induction of phototoxicity by staining cells with Hoechst (a nuclear marker) and ethidium (a marker for dead cell nuclei). Images of each well are acquired on a fluorescence microscope equipped with a motorised stage driven by Metamorph software, and cell survival is quantified by inhouse program. The molecules are tested at 10 and 30 μM unless toxicity at this concentration. The negative control corresponds to cells treated with A2E and vehicle. The positive control corresponds to cells treated with A2E and crocetin (100 μM) 48 h before illumination. The treatments are done in quadruplicate and the experiments are performed 4 times.

[4] = 10 μM (first value of 'respectively')

Row | Structure (SMILES) | EC50 ([1]; SH-SY5Y cells, 5 μM RSL3, 24 h, MTS, read-out: EC50 SH-SY5Y RSL3) | EC50 ([1]; SH-SY5Y cells, 10 μM Erastin, 24 h, MTS, read-out: EC50 SH-SY5Y Erastin) | cellular death of dopaminergic neurons after 6-OHDA injury ([2]; 1 μM (second value of 'respectively')) | cellular death of dopaminergic neurons after 6-OHDA injury [2, 4] | rescue of dopaminergic neurons from cell death after 6-OHDA injury [2] | EC50 ([1]; SH-SY5Y, 24 h, read-out: EC50 SH-SY5Y Erastin) | cell survival of RPE cells after induction of phototoxicity [3]
1 | Oc1ccc(-c2cc3cccnc3[nH]2)cc1 [Compound 7, 4-(1H-pyrrolo[2,3-b]pyridin-2-yl)phenol] | 1360 nM | 12400 nM | 24% | 16% | partially and significantly rescue | – | –
2 | Oc1ccc(-c2cc3ccccc3[nH]2)cc1 [Compound 1, 4-(1H-indol-2-yl)phenol] | – | – | – | 25% | partially and significantly rescue | 1060 nM | protect RPE cells significantly against phototoxicity
